Where two headings read alike, the source gives them in different places. One block for each molecule: values may come before it.
Columns and labels:
[1] = Biodistribution by gamma well counting at 90 min post-injection; format: in vivo, Lewis rats; conditions: Lewis, rat, iv, total radioactivity, 90 min after intravascular injection
Experimental: To assess blood clearance and organ uptake dynamic in vivo PET-CT imaging was performed followed by image processing and analysis. Lewis rats (n = 6, Harlan Inc.) were anesthetized with 2% isoflurane, the neck area was shaved and a jugular vein cut-down procedure was performed to insert a PE-50 […] catheter for radiotracer injection. Animals were then placed in supine position on the polyacrylic imaging bed of a small animal dedicated PET-CT scanner (Inveon, Siemens Healthcare, USA). At the time of PET acquisition, animals were injected with ~22.2 MBq of (7) via the jugular vein catheter over 30 s followed by bolus infusion of 0.2 mL sterile saline. Animals underwent 60 min dynamic PET imaging (15% energy window centered at 511 keV) followed by anatomical X-ray CT imaging (80 keV, 500 μA, 100 μm spatial resolution).
For biodistribution studies, all animals were euthanized at 90 min post-injection and selected organ samples were collected for gamma well counting analysis. All collected sections were weighed and the tissue radioactivity was measured with Wizard^2 gamma well counter (Perkin-Elmer, USA). Measured ^64Cu activity was corrected for background, decay time, and tissue weight.

[2] = In vivo stability / metabolism (HPLC of urine and feces); set-up: species or system Lewis rats
Experimental: Following dynamic PET-CT imaging, both urine and feces samples were collected to assess radiotracer’s metabolism and excretion route. The urine samples were collected at 90 min post injection by manual void, mixed at 1:1 ratio (v/v) with 50% CH3 CN and centrifuged at 5000 rpm. The supernatant was collected, analyzed by HPLC (C18 column, flow 1 mL/min, CH3 OH/H2 O, 5/95, v/v), and chromatograms compared to reference samples of (7) and ^64Cu-acetate. Feces samples were collected at 90 min post injection, suspended in 50% CH3 CN, homogenized and centrifuged at 5000 rpm. The supernatant was filtered and analyzed by RP-HPLC.

α V β 3 receptor = conditions: cited from earlier work; for Kd: comparison values quoted in discussion, no reference given, read-out: binding affinity (Kd); for k off: dissociation from α V β 3 receptor
[3] = target: T1, αVβ3 integrin on human umbilical vein endothelial cells (HUVEC) (human (endogenous in HUVEC)), P06756; assay: radioligand binding; HUVEC pretreated with Mn2+ (20 μM) for 10 min, washed, then (7) 0-100 nM for 1 h at room temperature; gamma well counting; conditions: remark: other sources report otherwise
T1 chain 1: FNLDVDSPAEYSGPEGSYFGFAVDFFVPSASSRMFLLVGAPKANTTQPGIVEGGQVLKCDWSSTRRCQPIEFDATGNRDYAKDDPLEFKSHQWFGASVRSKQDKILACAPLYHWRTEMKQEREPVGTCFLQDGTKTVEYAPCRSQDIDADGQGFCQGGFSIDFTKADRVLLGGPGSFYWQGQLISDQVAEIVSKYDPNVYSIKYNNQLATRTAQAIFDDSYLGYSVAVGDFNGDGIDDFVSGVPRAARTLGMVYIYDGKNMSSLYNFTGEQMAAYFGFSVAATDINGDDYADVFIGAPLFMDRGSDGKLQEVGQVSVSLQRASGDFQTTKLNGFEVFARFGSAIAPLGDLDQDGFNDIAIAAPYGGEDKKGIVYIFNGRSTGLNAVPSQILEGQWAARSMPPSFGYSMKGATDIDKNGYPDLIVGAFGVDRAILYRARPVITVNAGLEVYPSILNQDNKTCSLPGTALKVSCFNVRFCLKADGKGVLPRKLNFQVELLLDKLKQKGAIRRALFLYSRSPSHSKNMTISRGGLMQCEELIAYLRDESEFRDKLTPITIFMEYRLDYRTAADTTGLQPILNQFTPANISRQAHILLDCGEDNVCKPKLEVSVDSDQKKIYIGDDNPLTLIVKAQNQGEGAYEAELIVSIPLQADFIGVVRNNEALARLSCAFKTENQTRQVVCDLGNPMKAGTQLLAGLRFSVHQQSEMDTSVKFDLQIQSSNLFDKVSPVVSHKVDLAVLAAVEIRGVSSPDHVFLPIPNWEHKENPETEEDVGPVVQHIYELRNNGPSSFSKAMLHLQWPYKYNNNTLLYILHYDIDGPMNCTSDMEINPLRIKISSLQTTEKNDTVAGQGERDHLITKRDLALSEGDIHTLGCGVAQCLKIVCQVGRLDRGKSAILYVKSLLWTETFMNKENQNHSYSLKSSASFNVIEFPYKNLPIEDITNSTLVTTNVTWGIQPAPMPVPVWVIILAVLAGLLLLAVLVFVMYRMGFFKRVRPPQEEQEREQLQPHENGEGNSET
T1 chain 2: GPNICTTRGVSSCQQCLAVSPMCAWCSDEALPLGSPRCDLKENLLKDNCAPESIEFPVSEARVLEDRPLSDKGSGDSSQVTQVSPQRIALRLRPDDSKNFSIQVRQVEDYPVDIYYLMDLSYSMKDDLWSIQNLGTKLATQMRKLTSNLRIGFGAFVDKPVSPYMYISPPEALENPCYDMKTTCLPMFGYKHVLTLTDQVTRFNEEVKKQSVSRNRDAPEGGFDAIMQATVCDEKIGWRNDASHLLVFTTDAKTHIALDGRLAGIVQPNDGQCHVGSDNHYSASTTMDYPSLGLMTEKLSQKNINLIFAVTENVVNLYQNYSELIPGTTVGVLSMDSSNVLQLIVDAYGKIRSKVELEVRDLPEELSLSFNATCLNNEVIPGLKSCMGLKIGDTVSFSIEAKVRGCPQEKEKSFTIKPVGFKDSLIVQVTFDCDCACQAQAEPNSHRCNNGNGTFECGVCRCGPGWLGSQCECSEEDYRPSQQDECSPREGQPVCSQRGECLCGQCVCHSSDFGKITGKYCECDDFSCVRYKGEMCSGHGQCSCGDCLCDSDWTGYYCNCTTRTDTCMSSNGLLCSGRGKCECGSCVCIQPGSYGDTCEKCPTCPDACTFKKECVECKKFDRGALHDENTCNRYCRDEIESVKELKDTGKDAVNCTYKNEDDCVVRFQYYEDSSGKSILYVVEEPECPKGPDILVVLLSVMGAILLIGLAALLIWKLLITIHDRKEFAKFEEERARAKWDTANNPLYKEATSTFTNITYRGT

[4] = target: T1, αVβ3 integrin on human umbilical vein …; assay: flow cytometry on cells; HUVEC pretreated with Mn2+ (20 μM) for 10 min, washed, then (8) 0-200 nM for 1 h at room temperature; conditions: remark: other sources report otherwise

Molecule: fibrinogen
Kd (α V β 3 receptor): 27 nM | k off (α V β 3 receptor): 0.00098 s⁻¹

Molecule: vibronectin: classical adhesive protein
Kd (α V β 3 receptor): 64 nM | k off (α V β 3 receptor): 0.00021 s⁻¹

B1: 64Cu-NOTA-PEG4-cRGD2 (7) (peptide)
chain: cyclo(RGDFK)
modifications: also: cyclic RGD dimer: each peptide via N3-PEG2 triazole on Glu bis-propargyl amide, PEG4, NOTA, 64Cu
increase of binding against HUVECs without Mn2+ [3]: 78%

Other lines, results leading:

tissue uptake at […] ([1]; intestines, read-out: uptake in intestines): 4.62 ± 0.24 %ID/g | tissue uptake at […] ([1]; kidney cortex, read-out: uptake in kidney cortex): 11.1 ± 2.2 %ID/g | tissue uptake at […] ([1]; kidney medulla, read-out: uptake in kidney medulla): 3.66 ± 0.4 %ID/g | tissue uptake at […] ([1]; lungs, read-out: uptake in lungs): 2.95 ± 0.43 %ID/g | tissue uptake at […] ([1]; spleen, read-out: uptake in spleen): 2.25 ± 0.33 %ID/g | activity in the feces ([2]; feces collected at 90 min post injection, RP-HPLC): no detectable activity | fraction remaining intact in the urine ([2]; urine collected at 90 min post injection, HPLC): more than 90%
Molecule: N=C(N)NCCC[C@@H]1NC(=O)[C@H](CCCCNC(=O)COCCOCCn2cc(CNC(=O)CC[C@H](NC(=O)CCOCCOCCOCCOCCNC(=S)Nc3ccc(CC4CN(CC(=O)O)CCN(CC(=O)O)CCN4CC(=O)O)cc3)C(=O)NCc3cn(CCOCCOCC(=O)NCCCC[C@@H]4NC(=O)[C@@H](Cc5ccccc5)NC(=O)[C@H](CC(=O)O)NC(=O)CNC(=O)[C@H](CCCNC(=N)N)NC4=O)nn3)nn2)NC(=O)[C@@H](Cc2ccccc2)NC(=O)[C@H](CC(=O)O)NC(=O)CNC1=O (stereo partly shown) [compound 7]

increase of binding against HUVECs without Mn2+ [4]: 78%
B2: FITC-PEG4-cRGD2 (8) (peptide)
chain: cyclo(RGDFK)
modifications: also: cyclic RGD dimer: each peptide via N3-PEG2 triazole on Glu bis-propargyl amide, PEG4, fluorescein (from FITC)
